Tests used:
[1] = system: nucleotide excision repair in HeLa cells; assay: In vivo excision assay with TFIIH antibody immunoprecipitation; format: cell-based, human; conditions: for substrate for excision repair: when incorporated into the DNA of replicating cells, summary statement
Description: (§1) UV Irradiation and Thymidine analog treatment: HeLa cells were grown to ˜80% confluence, culture medium was removed, cells were washed twice with PBS, and then were placed under a GE germicidal lamp emitting primarily 254-nm UV light (1 J/m^2/sec) connected with a digital timer for 20sec (20 J/m^2 in total). Cells were collected after 1 hour repair. Thymidine analogs were dissolved in sterile PBS (BrdU, EdU, CldU) or DMSO (IdU, F-ara-EdU, AmdU), and then added to cell culture medium at final concentration of 10 μM for indicated times.
(§2) In vivo excision assay: For in vivo excision assay with BrdU antibody, low molecular DNAs isolated by Hirt procedure as previously described (ref 17) were subject to immunoprecipitation with anti-BrdU antibody. For in vivo excision assay with TFIIH antibody, cells were lysed in buffer A (25 mM HEPES at pH7.9, 100 mM KCl, 12 mM MgCl2, 0.5 mM EDTA, 2 mM DTT, 12.5% glycerol, 0.5% NP-40), and excised oligonucleotides complexed with TFIIH protein were immunoprecipitated with TFIIH antibody. Purified oligonucleotides from BrdU IP or TFIIH IP were 3′ end-labeled by terminal deoxynucleotidyl transferase (TdT), α-^32P-ATP with a standard 50 mer oligonucleotide as spike internal control. After phenol-chloroform extraction and ethanol precipitation, labeled DNAs were fractionated with 12% denaturing sequencing gels.

[2] = system: nucleotide excision repair in HeLa cells; assay: In vivo excision assay with anti-BrdU antibody immunoprecipitation; format: cell-based, human; conditions: for excised oligomers (nominal 26-mer) precipitated by anti-BrdU antibodies: 10 μM thymidine analog, 24 h, no UV
Description: as §1, §2

HeLa cells [3] = assay: Slot blot assay of thymidine analog incorporation into genomic DNA; format: cell-based, human; conditions: 10 μM thymidine analog, 24 h, anti-BrdU antibody
Description: Slot blot assay: HeLa cells were plated in 100 mm plates and treated with 10 μM thymidine analogs for 24 h. Genomic DNA was purified from cell pellets using QIAamp DNA mini kit (Qiagen, 51306). DNA concentrations were determined using a Qubit 3.0 fluorometer. 250 ng of each DNA was diluted with TE buffer (10 mM Tris-HCl pH8, 1 mM EDTA) to a total volume of 250 μL, then boiled at 90° C. for 10 min and cooled in ice water immediately. 250 μL cold ammonium acetate (2 M) was added to neutralize DNA, and then DNA samples were loaded onto nitrocellulose membranes using a slot blot apparatus. Membranes were transferred to a vacuum oven and baked for 1.5 h at 80° C., then blocked with 5% dried milk and incubated with either anti-BrdU antibody (1:1000) or anti-ssDNA antibody (1:5000) as loading control overnight at 4° C. After incubating with a horseradish peroxidase (HRP) labeled secondary antibody (1:10000) for 1 h, chemiluminescent signal was captured using a Bio-Rad ChemiDoc XRS imaging device.

[4] = compared with other thymidine analogs used to study replication; cited from earlier work
NHF1 wild-type cells = assay: In vivo excision assay (anti-BrdU IP) in wild-type NHF1 cells; format: cell-based, human; conditions: wild type NHF1, 10 μM EdU, 24 h
Excerpt: (§3) Cell lines: NHF1 cells, telomerase-immortalized normal human fibroblast monolayers were obtained as described previously (ref 17), XPA-/-XPC-/-CSB-/- triple knock out NHF1 cells were generated using CRISPR Cas9 system with gRNAs (XPA: […] (SEQ ID NO:1); CSB: […] (SEQ ID NO:2); XPC: […] (SEQ ID NO:3)). The HeLa cell line was from the American Type Culture Collection (ATCC). NHF1 and HeLa cells were maintained in Dulbecco's modified Eagle's medium (DMEM) supplemented with 10% fetal bovine serum at 37° C. in a 5% CO2 humidified chamber.
as §2

[5] = system: Chinese hamster ovary (CHO) AA8 cell free extract excision nuclease; assay: In vitro excision assay with mammalian cell-free extract; format: biochemical; conditions: 140bp duplex substrates, CHO AA8 CFE, three biological replicates
Description: In vitro excision assay: Radiolabeled 140-bp full length undamaged, (6-4) PP, and EdU damaged substrates were prepared, and in vitro excision assay with cell-free extract from Chinese hamster ovary (CHO) AA8 cells were carried out as previously described (ref 39). Briefly, Chinese hamster ovary (CHO) AA8 cell free extract (CFE) was prepared by the method of Manley (ref 42). Linear double-stranded DNA substrates (140bp in length) were prepared with centrally located (6-4) photoproduct or EdU as described previously (ref 43). The sequence of the centrally located 12-mers was […]; SEQ ID NO:4. For the (6-4) substrate, the (6-4) lesion was between T5 and T6. Single EdU was at T6 and, double EdU lesions were at T5 and T6. Unmodified 12mer and EdU containing 12mers were purchased from Integrated DNA Technologies.
The excision reaction with AA8 CFE (75 μg) was conducted with 20 fmol of 140bp substrates, 18 mM HEPES-KOH (pH 7.9), 24 mM KCl, 2 mM MgCl2, 4 mM ATP at 30° C. for 60 minutes as described (ref 35). After the excision reaction, the mixture was incubated with 0.34% SDS and 20 µg/ml Proteinase K at 55-60° C. for 15 minutes, then DNA was extracted with phenol:chloroform:isoamyl alcohol and precipitated with ethanol, resuspended in formamide/dye mixture, and separated with a 10% sequencing gel. Quantification of the signal intensities was done by using ImageJ.

[6] = system: primary human glioblastoma cell; conditions: same dose as Temozolomide; cited from earlier work
[7] = system: an osteosarcoma and a glioblastoma cell line; conditions: cited from earlier work
[8] = system: XPA-/-XPC-/-CSB-/- NHF1 cells; assay: In vivo excision assay (anti-BrdU IP) in excision repair defective NHF1 cells; format: cell-based, human; conditions: XPA-/-XPC-/-CSB-/- mutant NHF1, 10 μM EdU, 24 h
Excerpt: as §3, §2

HeLa cells [9] = assay: XR-seq of EdU excision products; format: cell-based, human; conditions: for TS/NTS ratio genome-wide: RNA Pol II transcribed genes
[10] = in vivo; cited from earlier work
Taq DNA polymerase = Taq DNA polymerase (Thermus aquaticus, UniProt P19821); assay: PCR of EdU-substituted genomic DNA with Taq DNA polymerase; format: biochemical; conditions: genomic DNA of cells treated with EdU for 24 hrs, CSA gene (946bp), 30 cycles
[11] = HeLa cells, 10 μM thymidine analog, 24 h

Chain of Taq DNA polymerase (P19821 whole entry): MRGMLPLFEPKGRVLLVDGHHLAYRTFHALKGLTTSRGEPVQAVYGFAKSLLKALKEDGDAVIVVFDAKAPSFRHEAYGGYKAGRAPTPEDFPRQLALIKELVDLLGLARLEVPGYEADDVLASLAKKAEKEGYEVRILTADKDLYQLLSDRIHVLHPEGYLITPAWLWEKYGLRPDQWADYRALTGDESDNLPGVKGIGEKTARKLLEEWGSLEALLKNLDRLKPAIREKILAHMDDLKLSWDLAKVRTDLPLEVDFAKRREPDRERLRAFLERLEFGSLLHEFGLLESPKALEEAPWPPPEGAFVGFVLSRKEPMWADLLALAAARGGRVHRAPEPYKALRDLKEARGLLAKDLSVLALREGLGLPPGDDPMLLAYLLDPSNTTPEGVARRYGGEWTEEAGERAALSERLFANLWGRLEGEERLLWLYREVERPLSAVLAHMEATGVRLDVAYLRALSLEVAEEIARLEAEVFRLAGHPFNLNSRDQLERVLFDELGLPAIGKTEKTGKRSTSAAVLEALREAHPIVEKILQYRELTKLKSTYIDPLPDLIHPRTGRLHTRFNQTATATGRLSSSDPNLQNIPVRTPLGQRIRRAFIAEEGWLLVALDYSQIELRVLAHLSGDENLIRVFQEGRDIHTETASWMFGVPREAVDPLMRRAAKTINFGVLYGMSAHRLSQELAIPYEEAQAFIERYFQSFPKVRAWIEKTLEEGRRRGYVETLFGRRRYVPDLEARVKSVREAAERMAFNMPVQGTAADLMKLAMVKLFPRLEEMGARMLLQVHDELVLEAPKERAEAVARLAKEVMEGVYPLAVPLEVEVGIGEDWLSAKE

## O=c1[nH]c(=O)n([C@H]2C[C@H](O)[C@@H](CO)O2)cc1I [IdU, 5-Iodo-2′-deoxyuridine]
[1]
  substrate for excision repair: not to be substrates for excision repair
[2]
  excised oligomers (nominal 26-mer) precipitated by anti-BrdU antibodies: not
HeLa cells [3]
  incorporation into replicating HeLa cells: similarly incorporated

## O=c1[nH]c(=O)n([C@H]2C[C@H](O)[C@@H](CO)O2)cc1Cl [CldU, 5-Chloro-2′-deoxyuridine]
[1]
  substrate for excision repair: not to be substrates for excision repair
[2]
  excised oligomers (nominal 26-mer) precipitated by anti-BrdU antibodies: not
HeLa cells [3]
  incorporation into replicating HeLa cells: similarly incorporated

## [N-]=[N+]=NCc1cn([C@H]2C[C@H](O)[C@@H](CO)O2)c(=O)[nH]c1=O [AmdU, 5-(azidomethyl)-2′-deoxyuridine]
[1]; [11]
  excised by human nucleotide excision repair (TFIIH IP): only EdU is excised
[1]
  substrate for excision repair: not to be substrates for excision repair

## C#Cc1cn([C@H]2C[C@H](O)[C@@H](CO)O2)c(=O)[nH]c1=O [EdU, 5-Ethynyl-2′-deoxyuridine]
[4]
  toxicity: highly toxic
NHF1 wild-type cells
  excision product: excision product seen
[5]
  in vitro excision (percentage of excision relative to total amount of substrate): efficient substrate for the mammalian excision nucleases
[6]
  apoptosis relative to Temozolomide: 3-5 fold
  strand breaks relative to Temozolomide: 3-5 fold
[7]
  suppressing cell proliferation compared with BrdU: outperform BrdU
[1]; [11]
  length of excision products isolated with anti-TFIIH antibodies: 25-32 nucleotide
[1]
  substrate for excision repair: substrate for excision repair
[2]; 10 μM EdU for 3 to 48 hrs
  time of peak level of excised EdU-containing fragments: 24 h
[2]; 10 μM EdU, 24 hours, both light conditions
  length of excised oligonucleotides under yellow light and ordinary room light: 22-30 nts
[2]
  excised oligomers (nominal 26-mer) precipitated by anti-BrdU antibodies: precipitated oligomers in the form of nominal 26-mer
[2]; 4 hours EdU, then EdU-free medium, up to 12 hrs
  time that EdU removal continues after pulse labeling: at least 12 hrs
HeLa cells [3]
  incorporation into replicating HeLa cells: similarly incorporated
[8]
  excision product: no excision product
HeLa cells [9]; 15 ChromHMM chromatin states, 6 h to 48 h
  XR-seq reads over active promoter, weak promoter, strong enhancer and transcription transition region: relatively high
HeLa cells [9]; 6 h EdU treatment
  TS/NTS ratio genome-wide: ~2.5
HeLa cells [9]; 48 h EdU treatment
  TS/NTS ratio genome-wide: ~1.2
HeLa cells [9]; HACD3, DHFR, and MSH3 genes
  time at which TS/NTS repair ratio peaks: 6 h
HeLa cells [9]; anti-TFIIH IP, XR-seq
  peak of length distribution of excision products: 25-27 nucleotides
HeLa cells [9]; gene and intergenic regions
  repair of EdU at DNase hypersensitivity peaks: significantly enriched
[10]
  crossing of the blood-brain-barrier: crosses the blood-brain-barrier
Taq DNA polymerase
  PCR product from EdU-substituted genomic DNA template: produced full-size fragments

## C#Cc1cn([C@@H]2O[C@H](CO)[C@@H](O)[C@@H]2F)c(=O)[nH]c1=O [F-ara-EdU, (2′S)-2-Deoxy-2-fluoro-5-ethynyluridine]
[1]; [11]
  excised by human nucleotide excision repair (TFIIH IP): only EdU is excised
[1]
  substrate for excision repair: not to be substrates for excision repair

## O=c1[nH]c(=O)n([C@H]2C[C@H](O)[C@@H](CO)O2)cc1Br [BrdU, 5-Bromo-2′-deoxyuridine]
[1]
  substrate for excision repair: not to be substrates for excision repair
[2]
  excised oligomers (nominal 26-mer) precipitated by anti-BrdU antibodies: not
HeLa cells [3]
  incorporation into replicating HeLa cells: similarly incorporated
